Measurements from PMC9944328 (Nature Communications, 2023).

Test system: SSTR2 mutants
Assay: SSTRs Gi-mediated cAMP inhibition, GloSensor, HEK293, 5 μM forskolin, 15 min room temperature (SSTR2 mutants)
Assay type: cell-based, human
Conditions: for Fold of WT: Gi signaling EC50
Experimental: The levels of the intracellular 3′, 5′-cyclic AMP (cAMP) were measured by the GloSensor cAMP assay (Promega) as described in the previous studies[28],[41] which has been widely used. The human full-length SSTRs and mutants were cloned into the pcDNA3.1+ vector with a HA signal sequence followed by a Flag tag at the N-terminus. HEK293 cells (ATCC, CRL-1573) were seeded into 6-well microplates at a density of 1.0 × 10^6 cells/well and cultured for 24 h at 37 °C with 5% CO2. Cells were then co-transfected with SSTR wild-type or mutants and GloSensor plasmids. After 24 h of transfection, the cells were dissociated with TrypLE™ Express Enzyme (1X) (Thermo Fisher Scientific) and collected by centrifugation at 500 × g for 5 min. Then the collected cells were suspended in Hank’s balanced salt solution [HBSS (Thermo Fisher Scientific)] supplemented with […] (YEASEN), and then the suspension cells were seeded into 96-well plates with 90 μl/well. After incubating at room temperature for 40 min, 5 μM forskolin and ligands diluted in HBSS were added to each well and the plates were incubated at room temperature for 15 min. […] were measured using the Synergy H1 microplate reader (BioTek) and the data presented are means of at least three independent experiments.

[1] = Gi signaling, SSTR2 D295(7.36)A, n=3
[2] = Gi signaling, SSTR2 F127(3.37)A, n=3
[3] = Gi signaling, SSTR2 F208(5.38)A, n=3
[4] = Gi signaling, SSTR2 F265(6.44)A, n=3
[5] = Gi signaling, SSTR2 F294(7.35)A, n=3
[6] = Gi signaling, SSTR2 I130(3.40)A, n=3
[7] = Gi signaling, SSTR2 I195(45.52)A, n=3
[8] = Gi signaling, SSTR2 I284ECL3A, n=3
[9] = Gi signaling, SSTR2 K291(7.32)A, n=3
[10] = Gi signaling, SSTR2 L99(2.60)A, n=3
[11] = Gi signaling, SSTR2 N276(6.55)A, n=3
[12] = Gi signaling, SSTR2 P220(5.50)A, n=3
[13] = Gi signaling, SSTR2 Q102(2.63)A, n=3
[14] = Gi signaling, SSTR2 T194(45.51)A, n=3
[15] = Gi signaling, SSTR2 V103(2.64)A, n=3
[16] = Gi signaling, SSTR2 W269(6.48)A, n=3
[17] = Gi signaling, SSTR2 Y50(1.39)A, n=3
[18] = Gi signaling, SSTR2 Y205(5.35)A, n=3
[19] = Gi signaling, SSTR2 Y302(7.43)A, n=3

## N#Cc1cccc(-c2ccc3ncc(-c4cc(F)cc(F)c4)c(N4CCC(N)CC4)c3c2)c1O [paltusotine]
D295(7.36) substituted with a bulkier side chain, SSTR2
  Activation potency of mutant: reduced the activation potency
D295A-1 (run 1)
  Bottom (best-fit value), cAMP inhibition: -5.811
  LogEC50 (best-fit value), cAMP inhibition: -7.797
  Span (best-fit value), cAMP inhibition: 125.1
  Top (best-fit value), cAMP inhibition: 119.3
D295A-2 (run 2)
  Bottom (best-fit value), cAMP inhibition: -4.778
  LogEC50 (best-fit value), cAMP inhibition: -7.798
  Span (best-fit value), cAMP inhibition: 119.6
  Top (best-fit value), cAMP inhibition: 114.8
D295A-3 (run 3)
  Bottom (best-fit value), cAMP inhibition: -4.901
  LogEC50 (best-fit value), cAMP inhibition: -7.743
  Span (best-fit value), cAMP inhibition: 121.4
  Top (best-fit value), cAMP inhibition: 116.5
D295F, run 1
  Bottom (best-fit): -4.815
  LogEC50: -9.49
  Span (best-fit): 83.08
  Top (best-fit): 78.27
D295F, run 2
  Bottom (best-fit): -4.16
  LogEC50: -9.689
  Span (best-fit): 84.37
  Top (best-fit): 80.21
D295F, run 3
  Bottom (best-fit): 9.942
  LogEC50: -8.808
  Span (best-fit): 67.74
  Top (best-fit): 77.68
F208A-1 (run 1)
  Bottom (best-fit value): 6.193
  LogEC50 (best-fit value): -7.826
  Span (best-fit value): 90.63
  Top (best-fit value): 96.82
F208A-2 (run 2)
  Bottom (best-fit value): 3.33
  LogEC50 (best-fit value): -7.007
  Span (best-fit value): 88.37
  Top (best-fit value): 91.7
F208A-3 (run 3)
  Bottom (best-fit value): -2.358
  LogEC50 (best-fit value): -7.101
  Span (best-fit value): 89.17
  Top (best-fit value): 86.81
F265A-1 (run 1)
  Bottom (best-fit value): -8.311
  LogEC50 (best-fit value): -7.946
  Span (best-fit value): 113.6
  Top (best-fit value): 105.3
F265A-2 (run 2)
  Bottom (best-fit value): -6.152
  LogEC50 (best-fit value): -7.834
  Span (best-fit value): 121
  Top (best-fit value): 114.8
F265A-3 (run 3)
  Bottom (best-fit value): -8.585
  LogEC50 (best-fit value): -8.008
  Span (best-fit value): 129.6
  Top (best-fit value): 121
F272A-1 (run 1)
  Bottom (best-fit value): 9.906
  LogEC50 (best-fit value), cAMP inhibition: -7.753
  Span (best-fit value), cAMP inhibition: 47.19
  Top (best-fit value): 57.1
F272A-2 (run 2)
  Bottom (best-fit value): 0.969
  LogEC50 (best-fit value), cAMP inhibition: -7.573
  Span (best-fit value), cAMP inhibition: 51.72
  Top (best-fit value): 52.69
F272A-3 (run 3)
  Bottom (best-fit value): 2.026
  LogEC50 (best-fit value), cAMP inhibition: -6.838
  Span (best-fit value), cAMP inhibition: 59.81
  Top (best-fit value): 61.84
F294A-1 (run 1)
  Bottom (best-fit value), cAMP inhibition: 3.955
  LogEC50 (best-fit value), cAMP inhibition: -8.447
  Span (best-fit value), cAMP inhibition: 85.58
  Top (best-fit value), cAMP inhibition: 89.53
F294A-2 (run 2)
  Bottom (best-fit value), cAMP inhibition: -11.05
  LogEC50 (best-fit value), cAMP inhibition: -8.376
  Span (best-fit value), cAMP inhibition: 101.1
  Top (best-fit value), cAMP inhibition: 90.09
F294A-3 (run 3)
  Bottom (best-fit value), cAMP inhibition: 15.03
  LogEC50 (best-fit value), cAMP inhibition: -9.824
  Span (best-fit value), cAMP inhibition: 106.4
  Top (best-fit value), cAMP inhibition: 121.4
F294Y, run 1
  Bottom (best-fit): 11.7
  LogEC50: -9.133
  Span (best-fit): 95.55
  Top (best-fit): 107.3
F294Y, run 2
  Bottom (best-fit): 3.363
  LogEC50: -9.003
  Span (best-fit): 99.71
  Top (best-fit): 103.1
F294Y, run 3
  Bottom (best-fit): -9.817
  LogEC50: -9.17
  Span (best-fit): 128.4
  Top (best-fit): 118.6
SSTR2 D295(7.36)A
  Fold of WT: 1.30
SSTR2 F127(3.37)A
  Fold of WT: 0.54
SSTR2 F208(5.38)A
  Fold of WT: 34.16
SSTR2 F265(6.44)A
  Fold of WT: 6.35
SSTR2 F272A
  Fold of WT: 33.58
SSTR2 F294(7.35)A
  Fold of WT: 1.40
SSTR2 I130(3.40)A
  Fold of WT: 10.09
SSTR2 I195(45.52)A
  Fold of WT: 44.36
SSTR2 K291(7.32)A
  Fold of WT: 2.78
SSTR2 L99(2.60)A
  Fold of WT: 9.09
SSTR2 N276(6.55)A
  Fold of WT: 0.88
SSTR2 P220(5.50)A
  Fold of WT: 1.71
SSTR2 Q102(2.63)A
  Fold of WT: 16.51
SSTR2 T194(45.51)A
  Fold of WT: 51.98
SSTR2 V103(2.64)A
  Fold of WT: 17.54
SSTR2 W269(6.48)A
  Fold of WT: 0.23
SSTR2 Y50(1.39)A
  Fold of WT: 1.90
SSTR2 Y205(5.35)A
  Fold of WT: 0.26
SSTR2 Y302(7.43)A
  Fold of WT: 6.27
[1]
  EC50: 2.46 ± 1.67 nM
  Emax: 107.80±3.11 %WT
[2]
  EC50: 1.02 ± 1.29 nM
  Emax: 107.70±2.32 %WT
[3]
  EC50: 64.2 ± 2.53 nM
  Emax: 91.78±2.89 %WT
[4]
  EC50: 11.9 ± 1.45 nM
  Emax: 113.70±4.57 %WT
Gi signaling, SSTR2 F272A, n=3
  EC50: 63.1 ± 4.1 nM
  Emax: 57.21±2.64 %WT
[5]
  EC50: 2.64 ± 1.26 nM
  Emax: 100.30±10.53 %WT
[6]
  EC50: 19 ± 2.64 nM
  Emax: 116.50±4.76 %WT
[7]
  EC50: 83.4 ± 1.65 nM
  Emax: 106.20±8.71 %WT
[8]
  EC50: 1.22 nM
  Emax: 113.80±5.04 %WT
[9]
  EC50: 5.22 ± 8.67 nM
  Emax: 97.49±6.65 %WT
[10]
  EC50: 17.1 ± 5.16 nM
  Emax: 107.80±2.34 %WT
[11]
  EC50: 1.65 ± 3.51 nM
  Emax: 89.08±4.63 %WT
[12]
  EC50: 3.22 ± 1.38 nM
  Emax: 116.00±5.23 %WT
[13]
  EC50: 31 ± 6.59 nM
  Emax: 97.26±5.45 %WT
[14]
  EC50: 97.7 ± 2.2 nM
  Emax: 85.51±3.13 %WT
[15]
  EC50: 33 ± 2.87 nM
  Emax: 87.33±6.38 %WT
[16]
  EC50: 0.44 nM
  Emax: 98.94±12.38 %WT
[17]
  EC50: 3.6 ± 6.86 nM
  Emax: 106.10±0.90 %WT
[18]
  EC50: 0.48 nM
  Emax: 98.71±2.78 %WT
[19]
  EC50: 11.8 ± 3.12 nM
  Emax: 55.80±2.34 %WT
I195A, run 1, best-fit
  EC50: 83.4 nM
  LogEC50: -7.079
I195A, run 2, best-fit
  EC50: 112 nM
  LogEC50: -6.952
I195A, run 3, best-fit
  EC50: 54.8 nM
  LogEC50: -7.261
I195M, run 1
  Bottom (best-fit): 2.531
  EC50: 8.24 nM
  LogEC50: -8.084
  Span (best-fit): 94.08
  Top (best-fit): 96.61
I195M, run 2
  Bottom (best-fit): -2.367
  EC50: 4.64 nM
  LogEC50: -8.333
  Span (best-fit): 106.3
  Top (best-fit): 103.9
I284A, run 1, best-fit
  EC50: 1.25 nM
  LogEC50: -8.902
I284A, run 2, best-fit
  EC50: 1.14 nM
  LogEC50: -8.945
I284A, run 3, best-fit
  EC50: 1.28 nM
  LogEC50: -8.894
K291A-1 (run 1)
  Bottom (best-fit value), cAMP inhibition: 1.006
  LogEC50 (best-fit value), cAMP inhibition: -8.362
  Span (best-fit value), cAMP inhibition: 92.81
  Top (best-fit value), cAMP inhibition: 93.82
K291A-2 (run 2)
  Bottom (best-fit value), cAMP inhibition: -4.234
  LogEC50 (best-fit value), cAMP inhibition: -8.83
  Span (best-fit value), cAMP inhibition: 114.6
  Top (best-fit value), cAMP inhibition: 110.4
K291A-3 (run 3)
  Bottom (best-fit value), cAMP inhibition: -10.93
  LogEC50 (best-fit value), cAMP inhibition: -8.158
  Span (best-fit value), cAMP inhibition: 99.18
  Top (best-fit value), cAMP inhibition: 88.26
L99A, run 1, best-fit
  EC50: 6.78 nM
  LogEC50: -8.169
L99A, run 2, best-fit
  EC50: 22.1 nM
  LogEC50: -7.655
L99A, run 3, best-fit
  EC50: 22.4 nM
  LogEC50: -7.65
N276A-1 (run 1)
  Bottom (best-fit value), cAMP inhibition: -4.414
  LogEC50 (best-fit value), cAMP inhibition: -9.003
  Span (best-fit value), cAMP inhibition: 102.7
  Top (best-fit value), cAMP inhibition: 98.25
N276A-2 (run 2)
  Bottom (best-fit value), cAMP inhibition: -3.382
  LogEC50 (best-fit value), cAMP inhibition: -8.659
  Span (best-fit value), cAMP inhibition: 88.97
  Top (best-fit value), cAMP inhibition: 85.59
N276A-3 (run 3)
  Bottom (best-fit value), cAMP inhibition: -1.142
  LogEC50 (best-fit value), cAMP inhibition: -8.752
  Span (best-fit value), cAMP inhibition: 84.55
  Top (best-fit value), cAMP inhibition: 83.41
P220A-1 (run 1)
  Bottom (best-fit value): 6.519
  LogEC50 (best-fit value): -8.456
  Span (best-fit value): 112
  Top (best-fit value): 118.5
P220A-2 (run 2)
  Bottom (best-fit value): 4.552
  LogEC50 (best-fit value): -8.51
